Like-named read-outs stand apart in the source and are kept apart here.
What was measured:
[1] = target: T1, purified recombinant MGMT (rMGMT) (Homo sapiens, UniProt P16455); assay: MGMT DNA repair activity ([3H]-methyl transfer), purified recombinant MGMT treated with DSF; type: biochemical
T1 construct: hexa-histidine; made in house; host or cells: E. coli
Method: (§1) The DNA repair activity of MGMT was measured by the transfer of [3H]-labeled methyl groups from the O^6-position of guanine in the DNA substrate to the MGMT protein as described previously. The DNA substrate enriched in O6-methylguanine was prepared by reacting [3H]-methylnitrosourea (GE Healthcare, 60 Ci/mmol). Briefly, the cell pellets were washed with cold PBS, disrupted by sonication in the assay buffer (30 mM Tris-HCl pH 7.5, 0.5 mM DTT, 0.5 mM EDTA, 5% glycerol, and 20 μM spermidine) and centrifuged. The extracts (50-150 μg protein) were supplemented with the [3H]-DNA (10,000 cpm) and incubated at 37° C. The reactions were terminated by the addition of TCA, the DNA substrate was hydrolyzed at 80° C., and following filtration on glass fiber discs; the radioactivity present in protein precipitates was quantitated.
(§2) Cells were trypsinized, washed and MGMT activity was determined in cell extracts (top panel). The same extracts were western blotted for MGMT protein. WB, western blot. […] Cells were exposed to CuDSF and analyzed for MGMT activity and protein as above. […] To delineate the appropriate time for alkylating drug treatments following MGMT inhibition, next, the time course of MGMT depletion by these three interventions was studied.

[2] = system: UW228 cells; assay: MTT cell survival assay; type: cell-based, human
Method: (§3) These were performed using the yellow tetrazolium dye (3-(4, 5-dimethylthiazolyl-2)-2, 5-diphenyl tetrazolium bromide) (MTT) as described previously. […] The purple color developed due to formazan was measured at 570 nm using a […]luor Plus plate reader (Tecan Inc.). Cell proliferation was also assessed by colony formation assays on soft agar.
(§4) Cells were then cultured for 48 hours before performing the MTT assays. […] The effect of drugs on cell survival was computed at each concentration. The data represents the results of three independent experiments performed in triplicate.

[3] = target: T2, MGMT (Homo sapiens, UniProt P16455); assay: MGMT activity and protein in MGMT-proficient human cancer cell lines (HT29, T47D, HCT116); type: cell-based; design: endogenous in cells; host or cells: HT29, T47D, HCT116
T2 sequence (P16455 1-207): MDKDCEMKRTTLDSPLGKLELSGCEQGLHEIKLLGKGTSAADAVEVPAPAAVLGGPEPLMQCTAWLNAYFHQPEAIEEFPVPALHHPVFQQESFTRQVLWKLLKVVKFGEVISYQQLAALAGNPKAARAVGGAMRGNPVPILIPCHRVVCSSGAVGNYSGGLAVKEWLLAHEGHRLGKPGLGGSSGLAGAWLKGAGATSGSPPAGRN

[4] = system: wild-type and mutant p53, NF-κB, and ubiquitin E1; assay: Degradation of redox-sensitive proteins by disulfiram; type: cell-based
[5] = target: T3, cellular MGMT (UW228 cell-free extracts) (Homo sapiens, UniProt P16455); assay: MGMT DNA repair activity in UW228 cell-free extracts treated with DSF; type: biochemical; settings: 25 μM DSF, 20 minutes
T3 construct: endogenous in cells; host or cells: UW228, T98G
Method: as §1, §2

[6] = target: T2, MGMT; assay: MGMT activity and protein (western blot) in drug-treated T98G and UW228 brain tumor cells; type: cell-based; design: endogenous in cells; host or cells: UW228, T98G
Method: as §1
After trypsinization, the cell pellets were washed with cold PBS, and subjected to sonication in 50 mM Tris-HCl (pH 8.0) containing 1% glycerol, 1 mM EDTA, 0.5 mM PMSF and 2 mM benzamidine and centrifuged. Equal protein amounts from different treatments were electrophoresed on 12% SDS-polyacrylamide gels. Proteins were electro-transferred to Immobilon-P membranes. The membranes were blocked with 5% non-fat dry milk in Trisbuffered saline (TBS; pH 8.0) containing 0.1% Tween 20 for 3 hours, and subsequently incubated with appropriate primary antibodies. Antigen-antibody complexes were visualized by enhanced chemiluminiscence (Pierce Company). Band intensities were quantified using a Bio-Rad Versa Doc Imaging system.
as §2
At times indicated, MGMT activity and protein levels were assessed.
MGMT performs a stoichiometric reaction to accomplish the DNA repair and is not recycled to its active form. Instead, the inactivated protein is degraded and fresh translation has to occur to restore the MGMT levels in cells. The rate and extent of this recovery is an important factor in the extent of damage introduced to the normal cell genomes such as the bone marrow stem cells. […] MGMT protein and activity levels were analyzed during the depletion and repletion (FIG. 3B).

[7] = target: T4, Cys145 of MGMT (Homo sapiens, UniProt P16455); assay: BG-PEG-biotin probe binding to MGMT
T4 construct: hexa-histidine; made in house; host or cells: E. coli
T4 sequence (P16455 1-207): T2 sequence (P16455 1-207)
Method: Drug treatments and exposure times are shown in labels. […] Cells were trypsinized at times shown. Levels of MGMT activity and protein were determined in cell extracts. […] BG-PEG-biotin (5 μM) was then added and incubations continued for 15 minutes. The samples were electrophoresed, blotted and probed with Streptavidin-HRP to detect the protein-bound biotin (upper panel). […] Streptavidin-HRP was used to probe the resulting blot (upper panel).
MGMT protein and activity levels were analyzed during the depletion and repletion (FIG. 3B). […] MGMT protein levels as determined by western analyses during the depletion/repletion cycle were consistent with and fully reflected the DNA repair activity profiles (FIG. 3B, left panel).

[8] = cited from earlier work
[9] = system: UW228 cells; assay: Soft agar colony formation assay; type: cell-based, human; settings: 50 μM DSF then BCNU or TMZ
Method: as §3, §4

## CCN(CC)C(=S)SSC(=S)N(CC)CC [DSF, 1,1′,1″,1′″-[disulfanediylbis(carbonothioylnitrilo)]tetraethane]
[1]
  inhibition at 25 µM: 40%
[2]; 50 μM DSF preincubation 12 hours
  effect on melphalan-induced cell killing: did not increase the melphalan-induced cell killing
[2]; 50 μM DSF preincubation 12 hours, BCNU 4 days
  potentiation of BCNU cytotoxicity: 3 fold
[2]; 50 μM DSF preincubation 12 hours, TMZ 4 days
  increased cytotoxicity of TMZ+DSF compared to TMZ alone: 4 to 5 fold
[2]; 50 μM DSF, 24 hours, then cultured 48 hours
  cell killing by DSF alone: less than 5%
[3]; 200 μM, 12 hours
  degradation of MGMT: about 70%
[3]; HT29 and HCT116 cells, 400 μM, 20 hour
  inhibition at 400 µM: 95%
[4]
  degradation of redox-sensitive proteins: degraded by disulfiram in a dose-dependent manner
[5]
  repair activity in the extracts curtailed: 75%
[6]
  duration of inactivation of MGMT: > 30 h
  duration of suppression of MGMT activity in cell cultures: 24 to 36 h
[6]; 50 μM in culture medium, at 12 hours, maintained till 24 hours, read-out: maximal inhibition of MGMT activity and protein
  inhibition at 50 µM: 75%
[6]; UW228 cells, 50 μM, 12 hours, read-out: loss/inhibition of MGMT activity at 12 hours post-drug treatment
  inhibition at 50 µM: 75%
[6]; UW228 cells, 10 mM DTT
  reversibility of DSF modification of MGMT by DTT: largely irreversible
[6]; UW228 cells, 48 hours post-drug in drug-free media after 50 μM for 12 hours
  recovery of MGMT activity, % of control levels: ~95 % of control levels
[6]; read-out: inhibition of MGMT activity
  inhibition at 50 µM: ~70%
[7]; 50 μM DSF, 20 minutes at 37° C., wild type rMGMT
  binding of BG-PEG-biotin probe to purified rMGMT after drug: significant reduction in binding of the probe
[7]; UW228 cell extracts, 20 minutes
  BG-PEG-biotin labeling of MGMT in cell extracts after drug: eliminated the western blot signal
[8]
  partition coefficient Log P: 2.8
[9]
  enhanced cytotoxicity of BCNU or TMZ, colony formation: 3 fold
